Values quoted from earlier work in patent US5637565A, “Purified form of streptogramins, its preparation and pharmaceutical compositions containing it” (Rhone-Poulenc Rorer S.A., priority 1993, dated 1997).

Details: purified crystalline product

- bioavailability: too low
Structure (SMILES): CC1=C\[C@@H](O)CC(=O)Cc2nc(co2)C(=O)N2CCC=C2C(=O)O[C@H](C(C)C)[C@H](C)/C=C/C(=O)NC\C=C\1 [pristinamycin IIA]
